From patent US10174037B2, “Dihydropyrazolopyrimidinone compounds as PDE2 inhibitors” (Merck Sharp & Dohme Corp., priority 2015, dated 2019)

Target: human PDE2A1 (Homo sapiens (Human), UniProt O00408)
Assay: PDE selectivity IMAP FP assay, human PDE2A1
Assay type: biochemical
Details: Human PDE2; Lab B; read-out: Human PDE2 Ki (nM) Lab B
Procedure: Selectivity for PDE2, as compared to other PDE families, was assessed using the IMAP® technology. Human PDE10A2 enzyme was prepared from cytosolic fractions of transiently transfected HEK cells.
A Labcyte POD 810 (Labcyte, Sunnyvale, Calif.) was used to dispense 200 nL from each well of the titration plate to make eleven copies of the assay plate for each titration, one copy for each PDE enzyme. A solution of each enzyme (dilution from aliquots, sufficient to produce 20% substrate conversion) and a separate solution of FAM-labeled cAMP or FAM-labeled cGMP from Molecular Devices (Sunnyvale, Calif., product # R7506 or cGMP#R7508), at a final concentration of 50 nM were made in the assay buffer (10 mM Tris HCl, pH 7.2, 10 mM MgCl2, 0.05% NaN3 0.01% Tween-20, and 1 mM DTT). Note that the substrate for PDE2 is 50 nM FAM cAMP containing 1000 nM of cGMP. The enzyme and the substrate were then added to the assay plates in two consecutive additions of 10 μL and then shaken to mix. The reaction was allowed to proceed at room temperature for 60 minutes. A binding solution was then made from the kit components, comprised of 80% Solution A, 20% Solution B and binding reagent at a volume of 1/600 the total binding solution. The enzymatic reaction was stopped by addition of 60 μL of the binding solution to each well of the assay plate. […] The plates were incubated at room temperature for one hour, then the parallel and perpendicular fluorescence was measured using a Tecan Genios Pro plate reader (Tecan, Switzerland). […] The intrinsic PDE2 inhibitory activity of a compound which may be used in accordance with the present invention may be determined by these assays. […]
The PDE2 Ki is a measure of the ability of the test compound to inhibit the action of the PDE2 enzyme.

Sequence of human PDE2A1 (O00408 other isoform, or with tags, fused parts or gaps): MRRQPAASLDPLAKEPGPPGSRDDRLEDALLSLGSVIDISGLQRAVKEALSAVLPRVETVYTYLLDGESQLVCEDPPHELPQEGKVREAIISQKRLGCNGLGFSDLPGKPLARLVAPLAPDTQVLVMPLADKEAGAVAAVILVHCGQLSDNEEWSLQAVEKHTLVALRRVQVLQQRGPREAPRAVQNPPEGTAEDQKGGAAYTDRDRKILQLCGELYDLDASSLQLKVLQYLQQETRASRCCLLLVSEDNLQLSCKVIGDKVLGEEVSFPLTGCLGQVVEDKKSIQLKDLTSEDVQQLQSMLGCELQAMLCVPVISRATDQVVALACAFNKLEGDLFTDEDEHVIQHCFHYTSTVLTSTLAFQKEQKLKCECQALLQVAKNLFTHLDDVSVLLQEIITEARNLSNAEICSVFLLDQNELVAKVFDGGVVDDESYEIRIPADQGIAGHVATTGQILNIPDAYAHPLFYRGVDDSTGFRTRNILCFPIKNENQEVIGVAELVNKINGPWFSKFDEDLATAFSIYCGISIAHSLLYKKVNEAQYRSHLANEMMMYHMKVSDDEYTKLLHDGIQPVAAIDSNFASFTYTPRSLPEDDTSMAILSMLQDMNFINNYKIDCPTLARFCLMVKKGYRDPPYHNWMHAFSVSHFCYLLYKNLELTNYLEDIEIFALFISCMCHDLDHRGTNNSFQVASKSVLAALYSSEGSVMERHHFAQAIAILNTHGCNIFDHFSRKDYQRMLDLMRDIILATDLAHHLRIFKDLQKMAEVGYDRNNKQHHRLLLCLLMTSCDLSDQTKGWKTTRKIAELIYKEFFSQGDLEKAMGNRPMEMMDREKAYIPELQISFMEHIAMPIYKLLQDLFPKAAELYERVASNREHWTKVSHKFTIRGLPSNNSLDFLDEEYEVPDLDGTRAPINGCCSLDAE

SMILES | Ki [nM]
CC1(C(c2ccc(C(F)(F)F)cc2)n2nc(CO)c3c(=O)[nH]c(O)nc32)CC1 (single isomer, unassigned) [Example 4] | 342
CC1(C(c2ccc(C(F)(F)F)c(F)c2)n2nc(CO)c3c(=O)[nH]c(O)nc32)CC1 (single isomer, unassigned) [Example 16] | 702
CC(c1ccc(C(F)(F)F)cc1F)n1nc(CO)c2c(=O)[nH]c(N(C)C)nc21 (single isomer, unassigned) [Example 80, (R)- or (S)-6-(Dimethylamino)-1-(1-(2-fluoro-4-(trifluoromethyl)phenyl)ethyl)-3-(hydroxymethyl)-1H-pyrazolo[3,4-d]pyrimidin-4(5H)-one] | 25
CC(C)C(c1ccc(CC(F)(F)F)cc1)n1nc(CO)c2c(=O)[nH]c(N(C)C)nc21 (single isomer, unassigned) [Example 89, (S)- or (R)-6-(Dimethylamino)-3-(hydroxymethyl)-1-(2-methyl-1-(4-(2,2,2-trifluoroethyl)phenyl)propyl)-1H-pyrazolo[3,4-d]pyrimidin-4(5H)-one] | 0.21
CCC(c1ccc(C(F)F)cc1)n1nc(CO)c2c(=O)[nH]c(N(C)C)nc21 (single isomer, unassigned) [Example 92, (R)- or (S)-1-(1-(4-(Difluoromethyl)phenyl)propyl)-6-(dimethylamino)-3-(hydroxymethyl)-1H-pyrazolo[3,4-d]pyrimidin-4(5H)-one] | 8.4
CCC(c1ccc(CC(F)(F)F)cc1)n1nc(CO)c2c(=O)[nH]c(N(C)C)nc21 (single isomer, unassigned) [Example 98, (R)- or (S)-6-(Dimethylamino)-3-(hydroxymethyl)-1-(1-(4-(2,2,2-trifluoroethyl)phenyl)propyl)-1H-pyrazolo[3,4-d]pyrimidin-4(5H)-one] | 1.3
CCC(c1ccc(CC(F)(F)F)cc1)n1nc(CO)c2c(=O)[nH]c(N(C)C)nc21 (single isomer, unassigned) [Example 99, (S)- or (R)-6-(Dimethyiamino)-3-(hydroxymethyl)-1-(1-(4-(2,2,2-trifluoroethyl)phenyl)propyl)-1H-pyrazolo[3,4-d]pyrimidin-4(5H)-one] | 0.31
CC(c1ccc(C(C)(F)F)cc1F)n1nc(CO)c2c(=O)[nH]c(N(C)C)nc21 (single isomer, unassigned) [Example 109, (S)- or (R)-1-(1-(4-(1,1-Difluoroethyl)-2-fluorophenyl)ethyl)-6-(dimethylamino)-3-(hydroxymethyl)-1H-pyrazolo[3,4-d]pyrimidin-4(5H)-one] | 8
CC(C)C(c1ccc(C(F)F)c(F)c1)n1nc(CO)c2c(=O)[nH]c(N(C)C)nc21 (single isomer, unassigned) [Example 115, (R)- or (S)-1-(1-(4-(Difluoromethyl)-3-fluorophenyl)-2-methylpropyl)-6-(dimethylamino)-3-(hydroxymethyl)-1H-pyrazolo[3,4-d]pyrimidin-4(5H)-one] | 0.21
CCC(c1ccc(C(F)(F)F)cc1F)n1nc(CO)c2c(=O)[nH]c(N(C)C)nc21 (single isomer, unassigned) [Example 131, (S)- or (R)-6-(Dimethylamino)-1-(1-(2-fluoro-4-(trifluoromethyl)phenyl)propyl)-3-(hydroxymethyl)-1H-pyrazolo[3,4-d]pyrimidin-4(5H)-one] | 3.9
CN(C)c1nc2c(c(CO)nn2C(c2ccc(C(F)F)c(F)c2)C2CC2)c(=O)[nH]1 (single isomer, unassigned) [Example 153, (S)- or (R)-1-(Cyclopropyl(4-(difluoromethyl)-3-fluorophenyl)methyl)-6-(dimethylamino)-3-(hydroxymethyl)-1H-pyrazolo[3,4-d]pyrimidin-4(5H)-one] | 3

More lines, now with the values ahead:

Ki [nM] | SMILES
105 | CC[C@@H](O)c1nn([C@@H](C)c2ccc(C(F)(F)F)cc2)c2nc(O)[nH]c(=O)c12 (mixture of isomers) [Example 294, (R,S)- and (R,R)- and (S,S)- and (S,R)-6-Hydroxy-3-(1-hydroxypropyl)-1-(1-(4-(trifluoromethyl)phenyl)ethyl)-1H-pyrazolo[3,4-d]pyrimidin-4(5H)-one]
168 | CC[C@@H](O)c1nn([C@@H](C)c2ccc(C(F)(F)F)cc2)c2nc(O)[nH]c(=O)c12 (mixture of isomers) [Example 295, (R,S)- and (R,R)- and (S,S)- and (S,R)-6-Hydroxy-3-(1-hydroxypropyl)-1-(1-(4-(trifluoromethyl)phenyl)ethyl)-1H-pyrazolo[3,4-d]pyrimidin-4(5H)-one]
55 | CC1(C(c2ccc(C(F)(F)F)c(F)c2)n2nc(CO)c3c(=O)[nH]c(O)nc32)CC1 (single isomer, unassigned) [Example 17]
50 | CC(c1ccc(C(F)(F)C(F)(F)F)cc1)n1nc(CO)c2c(=O)[nH]c(O)nc21 (single isomer, unassigned) [Example 31, (R)- or (S)-6-Hydroxy-3-(hydroxymethyl)-1-(1-(4-(perfluoroethyl)phenyl)ethyl)-1H-pyrazolo[3,4-d]pyrimidin-4(5H)-one]
~1900 | CC(c1ccc(C(F)(F)C(F)(F)F)cc1)n1nc(CO)c2c(=O)[nH]c(O)nc21 (single isomer, unassigned) [Example 32, (S)- or (R)-6-Hydroxv-3-(hydroxymethyl)-1-(1-(4-(perfluoroethyl)phenyl)ethyl)-1H-pyrazolo[3,4-d]pyrimidin-4(5H)-one]
3.2 | CN(C)c1nc2c(c(CO)nn2C(c2ccc(C(F)F)cc2)C2CC2)c(=O)[nH]1 (single isomer, unassigned) [Example 63]
0.25 | CC(c1ccc(C(C)(C)C)cc1)n1nc(CO)c2c(=O)[nH]c(N(C)C)nc21 (single isomer, unassigned) [Example 67, (S)- or (R)-1-(1-(4-tert-Butylphenyl)ethyl)-6-(dimethylamino)-3-(hydroxymethyl)-1H-pyrazolo[3,4-d]pyrimidin-4(5H)-one]
4.1 | CC(c1ccc(CC(F)(F)F)cc1)n1nc(CO)c2c(=O)[nH]c(N(C)C)nc21 (single isomer, unassigned) [Example 70, (R)- or (S)-6-(Dimethylamino)-3-(hydroxymethyl)-1-(1-(4-(2,2,2-trifluoroethyl)phenyl)ethyl)-1H-pvrazolo[3,4-d]pyrimidin-4(5H)-one]
2.9 | CCC(c1ccc(C(F)(F)F)cc1)n1nc(CO)c2c(=O)[nH]c(N(C)C)nc21 (single isomer, unassigned) [Example 72, (R)- or (S)-6-(Dimethylamino)-3-(hydroxymethyl)-1-(1-(4-(trifluoromethyl)phenyl)propyl)-1H-pyrazolo[3,4-d]pyrimidin-4(5H)-one]
35 | CC(c1ccc(C(F)F)cc1)n1nc(CO)c2c(=O)[nH]c(N(C)C)nc21 (single isomer, unassigned) [Example 82, (R)- or (S)-1-(1-(4-(Difluoromethyl)phenyl)ethyl)-6-(dimethylarnino)-3-(hydroxymethyl)-1H-pyrazolo[3,4-d]pyrimidin-4(5H)-one]
9.9 | CC(c1ccc(C(C)(F)F)cc1)n1nc(CO)c2c(=O)[nH]c(N(C)C)nc21 (single isomer, unassigned) [Example 102, (R)- or (S)-1-(1-(4-(1,1-Difluoroethyl)phenyl)ethyl)-6-(dimethylamino)-3-(hydroxymethyl)-1H-pyrazolo[3,4-d]pyrimidin-4(5H)-one]
40 | CC(c1ccc(C(F)F)c(F)c1)n1nc(CO)c2c(=O)[nH]c(N(C)C)nc21 (single isomer, unassigned) [Example 104, (R)- or (S)-1-(1-(4-(Difluoromethyl)-3-fluorophenyl)ethyl)-6-(dimethylamino)-3-(hydroxymethyl)-1H-pyrazolo[3,4-d]pyrimidin-4(5H)-one]
2.8 | CCC(c1ccc(C(C)(F)F)cc1F)n1nc(CO)c2c(=O)[nH]c(N(C)C)nc21 (single isomer, unassigned) [Example 110, (R)- or (S)-1-(1-(4-(1,1-Difluoroethyl)-2-fluorophenyl)propyl)-6-(dimethylamino)-3-(hydroxymethyl)-1H-pyrazolo[3,4-d]pyrimidin-4(5H)-one]
2.4 | CCC(c1ccc(OC(F)F)cc1)n1nc(CO)c2c(=O)[nH]c(N(C)C)nc21 (single isomer, unassigned) [Example 125, (S)- or (R)-1-(1-(4-(Difluoromethoxy)phenyl)propyl)-6-(dimethylamino)-3-(hydroxymethyl)-1H-pyrazolo[3,4-d]pyrimidin-4(5H)-one]
1.9 | CCC(c1ccc(C(C)(F)F)cc1)n1nc(CO)c2c(=O)[nH]c(N(C)C)nc21 (single isomer, unassigned) [Example 136, (R)- or (S)-1-(1-(4-(1,1-Difluoroethyl)phenyl)propyl)-6-(dimethylamino)-3-(hydroxymethyl)-1H-pyrazolo[3,4-d]pyrimidin-4(5H)-one]
